{"source": "patent US11457624B2", "about": "“Adjuvant compositions for plant treatment chemicals” (CORBET SCIENTIFIC, LLC, priority 2016, dated 2022)", "key": {"[1]": {"system": "woody shrubs and mixed grasses", "conditions": "general statement, no source given; cited from earlier work"}, "[2]": {"system": "bacterial spot (Xanthomonas euvesicatoria) on pepper", "assay": "Bacterial spot on pepper, field trial (disease severity, AUDPC)", "type": "in vivo", "protocol": "(§1) Field studies were conducted at the University of Florida, Southwest Florida Research and Education Center, Immokalee, Fla. For pepper trials, average monthly high and low temperatures were 98° F. and 70° F. in month one; 94° F. and 63° F. in month two; and 94° F. and 51° F. in month three; rainfall totaled 11.02, 0.95, and 2.41 inches for the same monthly periods, respectively. For squash trials, average monthly high and low temperatures were 93° F. and 45° F. in month one; 96° F. and 55° F. in month two; and 96° F. and 55° F. in month three; rainfall totaled 2.00, 3.35, and 5.59 inches for the same monthly periods, respectively.\n(§2) In all trials, seedlings were transplanted into Immokalee fine sand on day 0. Treatments were arranged in a complete randomized block treatment design with four replicates. For pepper trials, ‘Capistrano’ seedlings were arranged in plots comprising 10 plants in a single row spaced 10 inches apart within a 36 inch wide row with 5 feet between each plot and 12 feet center to center between rows. For squash trials, four week old ‘Dixie’ plants were arranged in plots comprising eight plants spaced 3 feet apart with a 27 foot row and with 10 feet between each plot.\n(§3) Each treatment formulation was spray applied. For pepper trials, treatment formulations were applied using a backpack CO2 sprayer at 40 psi with a single hollow-cone nozzle at 30 gal/A. Silicon was applied as sodium metasilicate nonahydrate (Na2SiO3.9H2O). For squash trials, treatment formulations were applied with a high clearance sprayer 2 mph and at 200 psi. A double drop boom equipped with six nozzles delivered a spray volume of 90 gal/A for tomato plants or 80 gal/A for squash plants.\nFor pepper trials, a suspension of inoculum of bacterial spot containing strains of several races was applied at day 22 and new inoculum was introduced periodically throughout the remainder of the trial.\n(§4) For each trial, disease severity was assessed by visually estimating the percentage of foliage with symptoms of disease. For pepper trials, plants were examined for symptoms of bacterial spot. For squash trials, plants were examined for powdery mildew. The area under the disease progress curve (AUDPC) was calculated from disease severity ratings. In some trials, fruit was harvested and evaluated for the amount of marketable fruit produced per plot. Data were analyzed within the statistical program of ARM 9.1 (pepper trials) or ARM 9.0 (tomato and squash trials) by ANOVA and means separated by LSD.\nTransplanted Capsicum annuum ‘Capistrano’ pepper seedlings were grouped into one of six treatment groups. Group one was an untreated control. The remaining five groups were spray treated with formulations that differed in their chemical compositions (Table 7).\nplants on days 14, 21, 28, 35, 42, 49, 56, 64, 71, 77, and 84. Plants were inoculated with a bacterial suspension (Xanthomonas euvesicatoria) on day 22 and periodically throughout the remainder of the trial. […]"}, "[3]": {"system": "Capsicum annuum Capistrano pepper plants", "assay": "Pepper harvest data, field trial", "type": "in vivo", "protocol": "as §1, §2, §3, §4\nFruit was harvested on days 61 and 83."}, "[4]": {"conditions": "sprays A-K, rates as in Table 7"}}, "data": [{"smiles": "CC(C)C1(C)N=C(c2ncccc2C(=O)O)NC1=O", "note": "(stereo not shown) [Imazapyr]", "values": [{"measurement": "time normally required to begin to see an effect on grassy plants", "setting": "[1]", "result": "2-5 months"}]}, {"smiles": "O.O.O.O.O.O.O.O.O.O=[Si]([O-])[O-].[Na+].[Na+]", "note": "[Silicon, sodium metasilicate nonahydrate]", "values": [{"measurement": "AUDPC (area under the disease progress curve)", "setting": "[2]; calculated from disease severity ratings", "result": 518.42, "unit": "ab"}, {"measurement": "Disease Severity Day 41", "setting": "[2]; sprays A-K (Day 14-84), rates as in Table 7, inoculated day 22", "result": "10.3 a percentage of symptomatic foliage"}, {"measurement": "Disease Severity Day 47", "setting": "[2]; [4]", "result": "21.5 a percentage of symptomatic foliage"}, {"measurement": "Disease Severity Day 58", "setting": "[2]; [4]", "result": "21.3 ab percentage of symptomatic foliage"}, {"measurement": "Disease Severity Day 61", "setting": "[2]; [4]", "result": "15 ab percentage of symptomatic foliage"}, {"measurement": "Disease Severity Day 71", "setting": "[2]; [4]", "result": "22.5 ab percentage of symptomatic foliage"}, {"measurement": "Marketable Fruit in Pound per Plot", "setting": "[3]; Day 61", "result": 2.9, "unit": "a Pound per Plot"}, {"measurement": "Number of Marketable Fruit per Plot", "setting": "[3]; Day 61", "result": 12, "unit": "a per Plot"}, {"measurement": "Marketable Number of Fruit per Plot", "setting": "[3]; Day 83", "result": 26.3, "unit": "a per Plot"}, {"measurement": "Marketable fruit weight per plot", "setting": "[3]; Day 83", "result": 7.38, "unit": "a Pound per Plot"}, {"measurement": "Non-Marketable Fruit in Pound per Plot", "setting": "[3]; Day 83", "result": 0.35, "unit": "a Pound per Plot"}, {"measurement": "Non-Marketable Fruit per Plot", "setting": "[3]; Day 83", "result": 1, "unit": "ab per Plot"}]}]}
